What was measured:
D4R = molecular target: T1, D4R (Homo sapiens, UniProt P21917, DEL265-296); assay: D4R competition binding ([3H]-spiperone); details: for inhibition at 10 µM: 2 h, 10 µM compound, n=2, read-out: D4R % displacement at 10 µM; for Ki: mean±SEM of two experiments in duplicate, read-out: D4R binding affinity Ki
T1 sequence (P21917 with tags, fused parts or gaps DEL265-296): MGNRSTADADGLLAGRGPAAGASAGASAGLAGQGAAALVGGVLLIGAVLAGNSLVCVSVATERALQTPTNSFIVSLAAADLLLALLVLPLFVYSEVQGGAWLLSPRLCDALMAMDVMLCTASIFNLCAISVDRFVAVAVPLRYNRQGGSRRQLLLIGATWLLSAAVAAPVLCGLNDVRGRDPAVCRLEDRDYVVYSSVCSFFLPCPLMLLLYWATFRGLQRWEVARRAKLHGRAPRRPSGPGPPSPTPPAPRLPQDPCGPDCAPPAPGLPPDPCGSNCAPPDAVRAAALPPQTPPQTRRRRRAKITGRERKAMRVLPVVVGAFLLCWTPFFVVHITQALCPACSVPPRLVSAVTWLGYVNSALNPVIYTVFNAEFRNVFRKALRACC
Procedure: D4R competition binding experiments were carried out in polypropylene 96 -well plate s. Each well contained 35 µg of membranes from a CHO-D4R cell line (Perkin Elmer, RBHD42M400U A, protein concentration=14000 µg/ml), 1 nM [3H]-spiperone (68 Ci/mmol, 1 mCi/ml, Perkin Elmer NET1187001MC), and the compound studied. Non-specific binding was determined in the presence of 25 µM haloperidol (Sigma H1512). The reaction mixture (250 µl/well) was incubated at 27 °C for 120 min, after which 200 µL was transferred to GF/C 96-well plates (Millipore, Madrid, Spain) pretreated with 0.5% PEI and treated with binding buffer (50 mM Tris-HCl, 1 mM EDTA, 5 mM MgCl2, 5 mM KCl, 120 mM NaCl, pH=7.4). The samples were filtered and washed f our times with 250 µl wash buffer (50 mM Tris-HCl, 0.9% NaCl, pH=7.4) before measuring in a microplate beta scintillation counter (Microbeta Trilux, PerkinElmer, Madrid, Spain). Two independent experiments were carried out to calculate Ki values (n=2). […]

D3R = molecular target: T2, D3R (Homo sapiens, UniProt P35462); assay: D3R competition binding ([3H]-spiperone); details: mean±SEM of two experiments in duplicate; read-out: D3R binding affinity Ki
T2 construct: purchased Perkin Elmer ES-173M400UA
Procedure: samples were filtered and washed four times with 250 µl wash buffer (50 mM Tris-HCl, 0.9% NaCl, pH=7.4) before measuring in a microplate beta scintillation counter (Microbeta Trilux, PerkinElmer, Madrid, Spain). Three independent exp eriments were carried out to calculate Ki values (n=3).
Human A1AR competition binding experiments were carried out in multiscreen GF/C 96 -well plates (Millipore, Madrid, Spain) pretreated with assay buffer ( 20 mM Hepes, 100 mM NaCl, 10 mM MgCl2, 2 U/ml adeno sine deamina se, pH=7.4). Each well contained 5 µg of membranes from a CHO-A1AR cell line, 1 nM [3H]-DPCPX (137 Ci/mmol, 1 mCi/Ml, Perkin Elmer NET974001MC), and the compound studied. Non-specific binding was determined in the presence of R-PIA 10 µM (Sigma P4532). The reaction mixture (200 µl/well) was incubated at 25°C for 60 min. The samples were then filtered and washed four times with 250 µl wash buffer (20 mM Hepes, 100 mM NaCl, 10 mM MgCl2, pH=7.4) before measuring in a microplate beta scintillati on counter (Microbeta Trilux, PerkinElmer, Madrid, Spain). Two independent experiments were carried out to calculate K i values (n=2).
D3R competition binding experiments were carried out in polypropylene 96 -well plate s. Each well contained 2 µg of membranes from a D3R cell line (Perkin Elmer, ES-173M400UA, protein concentration=1000 µg/ml), 1 nM [3H]-spiperone (68 Ci/mmol, 1 mCi/ml, Perkin Elmer NET1187001MC), and the compound studied. Non-specific binding was determined in the presence of 1 µ M haloperidol (Sigma H1512). The reaction mixture (250 µl/well) was incubated at 25 °C for 60 min, after which 200 µL was transferred to GF/C 96-well plates (Millipore, Madrid, Spain) pretreated with 0. […]
D4R competition binding experiments were carried out in polypropylene 96 -well plate s. […] Non-specific binding was determined in the presence of 25 µM haloperidol (Sigma H1512). […]
H1R competition binding experiments were carried out in polypropylene 96-well plates. […] Non-specific binding was determined in the presence of 10 µM triprolidine (T6764, Sigma Aldrich). […]

T2 sequence (P35462 whole entry): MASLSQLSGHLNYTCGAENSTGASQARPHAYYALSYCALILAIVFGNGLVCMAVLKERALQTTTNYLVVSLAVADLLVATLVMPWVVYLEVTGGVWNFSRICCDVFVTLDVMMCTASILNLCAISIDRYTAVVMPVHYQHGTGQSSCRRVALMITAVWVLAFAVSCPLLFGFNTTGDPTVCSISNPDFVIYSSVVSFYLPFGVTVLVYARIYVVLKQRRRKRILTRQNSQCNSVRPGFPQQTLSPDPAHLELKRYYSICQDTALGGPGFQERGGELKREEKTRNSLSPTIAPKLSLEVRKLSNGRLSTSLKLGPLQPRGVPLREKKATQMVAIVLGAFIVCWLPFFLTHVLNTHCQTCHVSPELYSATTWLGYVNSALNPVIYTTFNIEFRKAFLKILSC

inhibition at 10 µM (D4R)	Ki (D3R)	Ki (D4R)	SMILES
19 ± 1%	21 ± 6 nM	–	CCN(CCCCC(=O)Nc1nc2c(Br)cccc2s1)C1Cc2ccccc2C1 [Compound 22]
–	21 ± 2 nM	700 ± 80 nM	CCCN(CCCCC(=O)Nc1nc2c(OC)cccc2s1)C1Cc2ccccc2C1 [Compound 26]
27 ± 4%	–	–	CCCN(CCCCC(=O)Nc1nc2c(Br)cccc2s1)C1Cc2ccccc2C1 [Compound 27]
19 ± 4%	56 ± 7 nM	> 10000 nM	CCCN(CCCCC(=O)Nc1nc2c(OC)ccc(OC)c2s1)C1Cc2ccccc2C1 [Compound 30]

Reference: paper PMC8456950, “Structure‐Guided Design of G‐Protein‐Coupled Receptor Polypharmacology” (Angewandte Chemie (International Ed. in English), 2021)
